In paper PMC4050313, “Panaxadiol and Panaxatriol Derivatives as Anti-Hepatitis B Virus Inhibitors” (Natural Products and Bioprospecting, 2014):

Assays:
[1] = Cytotoxicity, modified MTT method; format: cell-based; details: human; 50 % cytotoxicity concentration in HepG 2.2.15 cells; means of two independent experiments
Method: (§1) Based on our previous description, inhibitory activity on HBV (HBsAg, HBeAg and HBV DNA) was evaluated. […] Cytotoxicity was assayed with a modified 3-(4,5-dimethylthiazole-2-yl)-2,5-diphenyltetrazolium bromide (MTT) method (Gibco Invitrogen, Carlsbad, CA, USA). The anti-HBV antigen secretion activities were determined by the enzyme linked immunosorbent assay (ELISA; Autobio Diagnostics Co., Ltd, China). A real-time PCR assay was applied to detect the inhibitory activity on HBV DNA replication.

[2] = tested on: HBV DNA replication; assay: Inhibition of HBV DNA replication, real-time PCR, HepG 2.2.15 cells; format: cell-based, Hepatitis B virus; details: Hepatitis B virus, HepG2.2.15; HepG 2.2.15 cells; means of two independent experiments
Method: as §1

[3] = tested on: HBsAg secretion; assay: microbe, parasite or virus in culture; format: cell-based, Hepatitis B virus; details: Hepatitis B virus, HepG2.2.15, read-out: HBsAg IC50
Method: as §1

[4] = tested on: HBeAg secretion; assay: microbe, parasite or virus in culture; format: cell-based, Hepatitis B virus; details: Hepatitis B virus, HepG2.2.15, read-out: HBeAg IC50
Method: as §1

[5] = tested on: liver injury induced by D-galactosamine and lipopolysaccharide; set-up: method as in PMID 12880307; details: liver injury induced by D-galactosamine and lipopolysaccharide in mice; cited from earlier work
[6] = tested on: herpes simplex virus type I; set-up: method as in doi:10.3109/13880209509088139; details: cited from earlier work

Row | SMILES | CC50 [1] [µM] | IC50 [2] [µM] | IC50 [3] [µM] | IC50 [4] [µM] | hepatoprotective activity [5] | ID50, reduced yield of herpes simplex virus type I [6] [µM]
1 | CC1(C)CCC[C@](C)([C@H]2CC[C@]3(C)[C@@H]2[C@H](O)C[C@@H]2[C@@]4(C)CC[C@H](O)C(C)(C)[C@@H]4CC[C@]23C)O1 [PD, Panaxadiol] | 923 | 148 | > 2280 | > 2280 | – | –
2 | CC1(C)CCC[C@](C)([C@H]2CC[C@]3(C)[C@@H]2[C@H](O)C[C@@H]2[C@@]4(C)CC[C@H](O)C(C)(C)[C@@H]4[C@@H](O)C[C@]23C)O1 [PT, Panaxatriol] | > 2420 | 669 | > 2420 | > 2420 | – | –
3 | CC(C)=CCC[C@](C)(O[C@@H]1O[C@H](CO)[C@@H](O)[C@H](O)[C@H]1O)[C@H]1CC[C@]2(C)[C@@H]1[C@H](O)C[C@@H]1[C@@]3(C)CC[C@H](O[C@@H]4O[C@H](CO)[C@@H](O)[C@H](O)[C@H]4O[C@@H]4O[C@H](CO)[C@@H](O)[C@H](O)[C@H]4O)C(C)(C)[C@@H]3CC[C@]12C [Rd, ginsenoside Rd] | – | – | – | – | showed hepatoprotective activity | –
4 | C[C@H](Cn1cnc2c(N)ncnc21)OCP(=O)(O)O [Tf, Tenofovir, reference compound] | > 1720 | 0.71 | 1390 | 1240 | – | –
5 | CC(C)=CCC[C@](C)(O[C@@H]1O[C@H](CO[C@@H]2O[C@H](CO)[C@@H](O)[C@H](O)[C@H]2O)[C@@H](O)[C@H](O)[C@H]1O)[C@H]1CC[C@]2(C)[C@@H]1[C@H](O)C[C@@H]1[C@@]3(C)CC[C@H](O[C@@H]4O[C@H](CO)[C@@H](O)[C@H](O)[C@H]4O)C(C)(C)[C@@H]3CC[C@]12C [XVII, ginsenoside XVII] | – | – | – | – | showed hepatoprotective activity | –
6 | CC(C)=CCC[C@](C)(O)[C@H]1CC[C@]2(C)[C@@H]1[C@H](O)C[C@@H]1[C@@]3(C)CC[C@H](O[C@@H]4O[C@H](CO[C@@H]5OC[C@@H](O)[C@H](O)[C@H]5O)[C@@H](O)[C@H](O)[C@H]4O[C@@H]4O[C@H](CO)[C@@H](O)[C@H](O)[C@H]4O)C(C)(C)[C@@H]3CC[C@]12C [chikusetsusaponin III] | – | – | – | – | – | 29
7 | CC(C)=CCC[C@](C)(O[C@@H]1O[C@H](CO)[C@@H](O)[C@H](O)[C@H]1O)[C@H]1CC[C@]2(C)[C@@H]1[C@H](O)C[C@@H]1[C@@]3(C)CC[C@H](O)C(C)(C)[C@@H]3[C@@H](O[C@@H]3O[C@H](CO)[C@@H](O)[C@H](O)[C@H]3O[C@@H]3OC[C@@H](O)[C@H](O)[C@H]3O)C[C@]12C [notoginsenoside R1] | – | – | – | – | showed hepatoprotective activity | –
